Each structure is given as a SMILES string.

We go through 1 compound from US20200062696A1, “COMPOSITIONS AND METHODS FOR INHIBITING RETICULON 4” (THE REGENTS OF THE UNIVERSITY OF CALIFORNIA, priority 2017, published 2020).

Test [1] concerns U2OS cells expressing GFP-tagged Sec61β. Briefly: Time-lapse imaging of mitosis and nuclear envelope in U2OS cells expressing GFP-Sec61β. As to conditions: DKM 3-30 50 μM. It counts as cell-based. The method, then: FIGS. 4A-4C. DKM 3-30 disrupts nuclear envelope morphology during mitosis. (FIGS. 4A-4C) U2OS cells expressing GFP-tagged Sec61β were treated with vehicle (DMSO) or DKM 3-30 (50 μM) and the ER morphology of mitotic cells visualized by time-lapse fluorescence microscopy. Time (min) is indicated on each panel. Panels (FIGS. 4A, 4B) provide examples of mitotic cells. Enlarged images following mitosis show the nuclear envelope. White arrowheads indicate a GFP-Sec61β structure bisecting the nucleus of a cell incubated with DKM 3-30. […] Bottom panels indicate boxed region.
Fluorescence microscopy. SW620 and U2OS cells were transiently transfected with a plasmid encoding GFP-tagged Sec61β using fuGENE6 (Roche) according to the manufacturer's instructions. Transfected cells plated on poly-L-lysine treated coverslips were treated, washed in PBS, and fixed by incubation in 4% paraformaldehyde in PBS for 10 min. Fixed cells were washed extensively in PBS and nuclei stained by addition of 4′,6-diamidino-2-phenylindole (DAPI) (Thermo Fisher Scientific) for 10 min. Coverslips were mounted using Fluoromount-G (SouthernBiotech) and visualized using a DeltaVision Elite microscope outfitted with a 60× oil immersion objective. Acquired stacks of images of fixed cells were deconvolved and analyzed using SoftWoRx and ImageJ. […] Acquired images were analyzed using SoftWoRx and ImageJ.

Another test deals with T1, pure human RTN4 protein (Homo sapiens, UniProt Q9NQC3).
T1 construct: purchased Fisher Scientific
T1 sequence (Q9NQC3 1-1192): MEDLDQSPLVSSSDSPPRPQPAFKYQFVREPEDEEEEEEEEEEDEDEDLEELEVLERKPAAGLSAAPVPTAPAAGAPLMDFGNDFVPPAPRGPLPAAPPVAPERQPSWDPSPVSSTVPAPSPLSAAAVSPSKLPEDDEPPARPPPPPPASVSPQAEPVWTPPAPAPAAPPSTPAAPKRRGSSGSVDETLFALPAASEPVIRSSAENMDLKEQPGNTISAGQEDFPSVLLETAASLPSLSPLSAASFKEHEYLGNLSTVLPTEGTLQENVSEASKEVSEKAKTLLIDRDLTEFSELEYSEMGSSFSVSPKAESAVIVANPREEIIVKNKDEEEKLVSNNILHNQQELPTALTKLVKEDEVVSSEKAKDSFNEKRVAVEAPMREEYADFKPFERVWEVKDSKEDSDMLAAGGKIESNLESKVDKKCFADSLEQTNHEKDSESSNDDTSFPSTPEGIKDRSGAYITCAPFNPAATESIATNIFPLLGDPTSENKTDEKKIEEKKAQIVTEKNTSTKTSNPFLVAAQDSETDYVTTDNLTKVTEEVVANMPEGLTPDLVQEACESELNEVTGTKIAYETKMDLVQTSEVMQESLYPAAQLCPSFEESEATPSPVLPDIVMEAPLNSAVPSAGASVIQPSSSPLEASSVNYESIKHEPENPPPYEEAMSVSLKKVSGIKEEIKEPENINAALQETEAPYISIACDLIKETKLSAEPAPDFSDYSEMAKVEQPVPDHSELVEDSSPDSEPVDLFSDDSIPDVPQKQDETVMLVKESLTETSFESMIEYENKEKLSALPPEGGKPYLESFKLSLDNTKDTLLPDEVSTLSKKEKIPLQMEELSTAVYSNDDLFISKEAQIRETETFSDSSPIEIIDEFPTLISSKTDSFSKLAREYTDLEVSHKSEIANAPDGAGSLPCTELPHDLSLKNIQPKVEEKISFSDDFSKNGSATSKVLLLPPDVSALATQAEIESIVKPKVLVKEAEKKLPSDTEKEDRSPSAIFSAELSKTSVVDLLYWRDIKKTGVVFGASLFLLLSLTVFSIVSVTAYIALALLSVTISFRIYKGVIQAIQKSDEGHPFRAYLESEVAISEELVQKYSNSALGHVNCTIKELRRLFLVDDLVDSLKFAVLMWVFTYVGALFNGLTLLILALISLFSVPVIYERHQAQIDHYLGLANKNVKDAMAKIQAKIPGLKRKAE
As to the kind of experiment: Gel-based ABPP competition against IAyne labeling of pure human RTN4 protein. It counts as binding. Particulars: pure human RTN4 protein, gel-based ABPP. The method, then: FIGS. 11A-11C. DKM 3-30 and analogs. (FIG. 11A) Structures of DKM 3-30 and analogs. (FIG. 11B) Gel-based ABPP analysis showing competition side-by-side competition studies of DKM 3-30, YP 1-46, and AMR 1-125 against IA-rhodamine labelling of pure human RTN4. Shown are the 50% inhibitory concentration (IC50) values for each compound. (FIG. 11C) Serum-free cell survival of U2OS (48 h) or SW620 (24 h) cells treated with DMSO vehicle or each compound (50 μM). Data in (C) are presented as mean±sem. Significance is expressed as *p<0.001 compared to vehicle-treated controls.
Gel-Based ABPP. Gel-based ABPP methods were performed as previously described^24. Recombinant RTN4 (0.06 μg) protein (RTN4-Fisher Scientific) were pre-treated with DMSO or DKM 3-30, respectively, for 1 h at 37° C. in an incubation volume of 50 μL PBS, and were subsequently treated with IAyne (10 μM final concentration) for 30 min at 37° C. CuAAC was performed to append rhodamine-azide onto IAyne probe-labeled proteins. The samples were separated by SDS/PAGE and scanned using a ChemiDoc MP (Bio-Rad Laboratories, Inc). Inhibition of target labeling was assessed by densitometry using ImageStudio Light software.

Test [2] has as its system SW620 colorectal cancer cells. Briefly: Serum-free cell survival of SW620 cells (Hoescht staining). It counts as cell-based. As to conditions: 48 h, vs DMSO, average of n = 3/group. The protocol:
Cell Culture. SW620 cells were purchased from ATCC. SW620 cells were grown in L-15 media with 10% fetal bovine serum (FBS) in ambient CO2. U2OS cells were grown in DMEM media supplemented with 10% FBS at 37° C. with 5% CO2.
Survival and Proliferation Assays. Cells were plated the evening before the experiment, and allowed to adhere overnight. For serum-free cell survival assays, cells were plated in media not containing FBS. For cell proliferation assays, cells were plated in regular media. For the chemical genetics screen, cells were treated with either DMSO or the cysteine-reactive fragment for 48 h and cell viability was assessed by Hoescht stain using our previously described methods

`C=CC(=O)Nc1ccc(Oc2ccc(Cl)cc2)cc1` [DKM 3-30, N-(4-(4-chlorophenoxy)phenyl)acrylamide]: in test [1], the “nuclear envelope morphology following mitosis” value is recorded as “aberrant nuclei that were bisected by GFP-Sec61β positive structures”. In test [1] (control cells ~50-60 min), the duration of mitosis was in the range of 3 to 4 h. On pure human RTN4 protein, the “displacement of IAyne labelling of RTN4” value is given as “validated this hit”. For the same compound, the viability at 50 µM in test [2] (Homo sapiens, SW-620, cysteine-reactive fragment 50 μM, read-out: SW620 survival Ave) was 31%. Moreover, the “SW620 survival Ave” value in test [2] (cysteine-reactive fragment 50 μM) was “significantly impaired”.
